One block for each compound: values may come before it. Active and inactive are the calls of the source. No cut-off for these calls is given here.
How the values were obtained:
NCI-H1299 = test: Cytotoxicity in human NCI-H1299 cells assessed as reduction in cell viability incubated for 24 hrs by CCK8 assay; type: functional, cell-based; details: NCI-H1299, 24 h
RKO = test: Cytotoxicity in human RKO cells assessed as reduction in cell viability incubated for 24 hrs by CCK8 assay; type: functional, cell-based
ASPC1 = test: Cytotoxicity in human ASPC1 cells assessed as reduction in cell viability incubated for 24 hrs by CCK8 assay; type: functional, cell-based; details: ASPC1, 24 h
NCI-H1975 = test: Cytotoxicity in human NCI-H1975 cells assessed as reduction in cell viability incubated for 24 hrs by CCK8 assay; type: functional, cell-based; details: NCI-H1975, 24 h
A549 = test: Cytotoxicity in human A549 cells assessed as reduction in cell viability incubated for 24 hrs by CCK8 assay; type: functional, cell-based; details: A549, 24 h
BXPC-3 [1] = test: Cytotoxicity in human BXPC-3 cells assessed as reduction in cell viability incubated for 24 hrs by CCK8 assay; type: functional, cell-based; details: BXPC-3, 24 h
MGC-803 = test: Cytotoxicity in human MGC-803 cells assessed as reduction in cell viability incubated for 24 hrs by CCK8 assay; type: functional, cell-based; details: MGC-803, 24 h
PC-9 = test: Cytotoxicity in human PC-9 cells assessed as reduction in cell viability incubated for 24 hrs by CCK8 assay; type: functional, cell-based; details: PC-9, 24 h
[2] = biological target: Protein kinase C iota type (Homo sapiens) (UniProt P41743); test: Inhibition of PKClambda phosphorylation in human BXPC-3 cells at 1 uM incubated for 4 hrs by Western blot analysis; type: cell-based
BXPC-3 [3] = test: Antitumor activity against patient-derived pancreatic cancer cells xenografted in BALB/c mouse model of patient-derived xenograft assessed as increase in cleaved caspase- levels at 6 mg/kg, iv dosed once every 2 days for 18 days by Western blot analysis; type: functional, organism-based; details: Homo sapiens, time 18.0 day
BXPC-3 [4] = test: Antitumor activity against patient-derived pancreatic cancer cells xenografted in BALB/c mouse model of patient-derived xenograft assessed as increased numbers of necrotic cells at 6 mg/kg, iv dosed once every 2 days for 18 days by H and E staining based analysis relative to control; type: functional, organism-based; details: Homo sapiens, time 18.0 day
[5] = biological target: Protein kinase C iota type/zeta type (Homo sapiens) (UniProt P41743+Q05513); test: Inhibition of PKCzeta/lambda phosphorylation at T410/T403 residue in human BXPC-3 cells at 1 uM incubated for 4 hrs by Western blot analysis; type: cell-based
[6] = biological target: PKC alpha and beta-2 (Homo sapiens) (UniProt P17252+P05771); test: Inhibition of PKCalpha/beta II phosphorylation at T638/T641 residue in human BXPC-3 cells at 1 uM incubated for 4 hrs by Western blot analysis; type: cell-based
BXPC-3 [7] = test: Reduction in Mcl1 protein expression in human BXPC-3 cells incubated for 24 hrs by Western blot analysis; type: functional, cell-based
[8] = biological target: Transcription factor p65 (Homo sapiens) (UniProt Q04206); test: Inhibition of p65 phosphorylation in human BXPC-3 cells at 0.5 uM measured within 1 hr by Western blot analysis; type: cell-based; details: time hrs <=1
[9] = biological target: Inhibitor of nuclear factor kappa-B kinase subunit alpha (Homo sapiens) (UniProt O15111); test: Inhibition of IKKalpha phosphorylation in human BXPC-3 cells at 0.5 uM measured within 1 hr by Western blot analysis; type: cell-based; details: time hrs <=1
BXPC-3 [10] = test: Induction of apoptosis in human BXPC-3 cells assessed as increase in cleaved caspase-3 level at 0.25 uM incubated for 30 mins by Western blot analysis; type: functional, cell-based
[11] = biological target: T1, Protein kinase C theta type (Homo sapiens, UniProt Q04759); test: Inhibition of PKCtheta phosphorylation at T538 residue in human BXPC-3 cells at 0.25 uM incubated for 4 hrs by Western blot analysis; type: cell-based
Target sequence in this assay (Q04759 whole entry, looked up): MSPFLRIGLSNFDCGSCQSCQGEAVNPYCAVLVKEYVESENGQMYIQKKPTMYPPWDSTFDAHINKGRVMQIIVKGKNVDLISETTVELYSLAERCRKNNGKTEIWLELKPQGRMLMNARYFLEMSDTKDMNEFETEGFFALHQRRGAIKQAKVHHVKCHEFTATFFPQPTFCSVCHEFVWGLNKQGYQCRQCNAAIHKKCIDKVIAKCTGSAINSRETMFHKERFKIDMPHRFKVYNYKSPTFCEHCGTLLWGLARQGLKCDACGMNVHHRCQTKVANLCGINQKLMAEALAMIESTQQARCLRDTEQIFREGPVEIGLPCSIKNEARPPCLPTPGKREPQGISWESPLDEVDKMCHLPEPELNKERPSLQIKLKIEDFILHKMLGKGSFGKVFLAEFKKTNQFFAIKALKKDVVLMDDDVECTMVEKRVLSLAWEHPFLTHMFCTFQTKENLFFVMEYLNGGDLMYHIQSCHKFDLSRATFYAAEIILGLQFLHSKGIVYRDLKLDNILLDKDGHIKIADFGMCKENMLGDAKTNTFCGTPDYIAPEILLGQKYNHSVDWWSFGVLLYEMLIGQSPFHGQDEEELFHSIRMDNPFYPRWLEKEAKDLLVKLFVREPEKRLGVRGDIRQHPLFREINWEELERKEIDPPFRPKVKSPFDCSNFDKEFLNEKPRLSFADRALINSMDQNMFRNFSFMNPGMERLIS

BXPC-3 [12] = test: Induction of apoptosis in human BXPC-3 cells assessed as increase in cleaved caspase-9 level at 0.25 uM incubated for 30 mins by Western blot analysis; type: functional, cell-based
[13] = biological target: Protein kinase C delta type (Homo sapiens, UniProt Q05655); test: Inhibition of PKCdelta phosphorylation at T505 residue in human BXPC-3 cells at 1 uM incubated for 4 hrs by Western blot analysis; type: cell-based
BXPC-3 [14] = test: Antitumor activity against patient-derived pancreatic cancer cells xenografted in BALB/c mouse model of patient-derived xenograft assessed as increase in cleaved caspase-3 levels at 6 mg/kg, iv dosed once every 2 days for 18 days by Western blot analysis; type: functional, organism-based; details: Homo sapiens, time 18.0 day
BXPC-3 [15] = test: Induction of apoptosis in human BXPC-3 cells incubated for 24 hrs by PI and annexin V-FITC staining based flow cytometry; type: functional, cell-based
[16] = biological target: Protein kinase C beta type (Homo sapiens) (UniProt P05771); test: Inhibition of PKC(pan)/beta II phosphorylation at S660 residue in human BXPC-3 cells at 1 uM incubated for 4 hrs by Western blot analysis; type: cell-based
[17] = biological target: Protein kinase C alpha type (Homo sapiens) (UniProt P17252); test: Inhibition of PKCalpha phosphorylation in human BXPC-3 cells at 1 uM incubated for 4 hrs by Western blot analysis; type: cell-based
[18] = biological target: NF-kappa-B inhibitor alpha (Homo sapiens) (UniProt P25963); test: Inhibition of IkappaB-alpha phosphorylation in human BXPC-3 cells at 0.5 uM measured within 1 hr by Western blot analysis; type: cell-based; details: time hrs <=1
BXPC-3 [19] = test: Induction of apoptosis in human BXPC-3 cells assessed as increase in cleaved PARP level at 0.25 uM incubated for 30 mins by Western blot analysis; type: functional, cell-based
BXPC-3 [20] = test: Antitumor activity against patient-derived pancreatic cancer cells xenografted in BALB/c mouse model of patient-derived xenograft assessed as reduction in p-PKCdelta protein levels at 6 mg/kg, iv dosed once every 2 days for 18 days by Western blot analysis; type: functional, organism-based; details: Homo sapiens, time 18.0 day
[21] = biological target: Protein kinase C zeta type (Homo sapiens) (UniProt Q05513); test: Inhibition of PKCzeta phosphorylation in human BXPC-3 cells at 1 uM incubated for 4 hrs by Western blot analysis; type: cell-based
BXPC-3 [22] = test: Reduction in Bcl-2 protein expression in human BXPC-3 cells incubated for 24 hrs by Western blot analysis; type: functional, cell-based
BXPC-3 [23] = test: Reduction in XIAP protein expression in human BXPC-3 cells incubated for 24 hrs by Western blot analysis; type: functional, cell-based
BXPC-3 [24] = test: Reduction in Bcl-XL protein expression in human BXPC-3 cells incubated for 24 hrs by Western blot analysis; type: functional, cell-based
[25] = biological target: Protein kinase C beta type (Homo sapiens) (UniProt P05771); test: Inhibition of PKCbeta phosphorylation at S660 residue in human BXPC-3 cells at 1 uM incubated for 4 hrs by Western blot analysis; type: cell-based
[26] = biological target: Inhibitor of nuclear factor kappa-B kinase subunit beta (Homo sapiens) (UniProt O14920); test: Inhibition of IKKbeta phosphorylation in human BXPC-3 cells at 0.5 uM measured within 1 hr by Western blot analysis; type: cell-based; details: time hrs <=1
BXPC-3 [27] = test: Induction of apoptosis in human BXPC-3 cells assessed as increase in cleaved caspase-7 level at 0.25 uM incubated for 30 mins by Western blot analysis; type: functional, cell-based
[28] = biological target: T1, Protein kinase C theta type; test: Inhibition of PKCtheta (unknown origin) by HTRF assay
Target sequence in this assay (Q04759 whole entry): as the sequence (Q04759 whole entry, looked up) above

Chain of Protein kinase C beta type (Homo sapiens) (P05771 2-671 limits assumed): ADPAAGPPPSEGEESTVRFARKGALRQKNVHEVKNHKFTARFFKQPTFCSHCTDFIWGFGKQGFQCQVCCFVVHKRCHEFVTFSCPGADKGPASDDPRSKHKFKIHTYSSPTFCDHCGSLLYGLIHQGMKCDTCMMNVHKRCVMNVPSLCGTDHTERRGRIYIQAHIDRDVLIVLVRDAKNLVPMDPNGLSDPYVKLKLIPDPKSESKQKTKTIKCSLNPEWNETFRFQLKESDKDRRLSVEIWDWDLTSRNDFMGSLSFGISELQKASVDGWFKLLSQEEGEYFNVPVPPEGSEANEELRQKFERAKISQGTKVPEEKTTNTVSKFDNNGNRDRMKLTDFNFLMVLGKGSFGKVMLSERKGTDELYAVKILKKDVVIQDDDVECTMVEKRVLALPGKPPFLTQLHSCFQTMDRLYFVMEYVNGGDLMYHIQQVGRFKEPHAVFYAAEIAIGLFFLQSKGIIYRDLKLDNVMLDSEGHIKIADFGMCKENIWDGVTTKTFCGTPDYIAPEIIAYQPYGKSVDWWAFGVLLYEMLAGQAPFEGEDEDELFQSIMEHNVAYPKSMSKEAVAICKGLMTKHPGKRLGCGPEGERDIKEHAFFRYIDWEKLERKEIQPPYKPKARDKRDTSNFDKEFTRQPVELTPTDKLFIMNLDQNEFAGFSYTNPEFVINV
Chain of Inhibitor of nuclear factor kappa-B kinase subunit beta (Homo sapiens) (O14920 whole entry): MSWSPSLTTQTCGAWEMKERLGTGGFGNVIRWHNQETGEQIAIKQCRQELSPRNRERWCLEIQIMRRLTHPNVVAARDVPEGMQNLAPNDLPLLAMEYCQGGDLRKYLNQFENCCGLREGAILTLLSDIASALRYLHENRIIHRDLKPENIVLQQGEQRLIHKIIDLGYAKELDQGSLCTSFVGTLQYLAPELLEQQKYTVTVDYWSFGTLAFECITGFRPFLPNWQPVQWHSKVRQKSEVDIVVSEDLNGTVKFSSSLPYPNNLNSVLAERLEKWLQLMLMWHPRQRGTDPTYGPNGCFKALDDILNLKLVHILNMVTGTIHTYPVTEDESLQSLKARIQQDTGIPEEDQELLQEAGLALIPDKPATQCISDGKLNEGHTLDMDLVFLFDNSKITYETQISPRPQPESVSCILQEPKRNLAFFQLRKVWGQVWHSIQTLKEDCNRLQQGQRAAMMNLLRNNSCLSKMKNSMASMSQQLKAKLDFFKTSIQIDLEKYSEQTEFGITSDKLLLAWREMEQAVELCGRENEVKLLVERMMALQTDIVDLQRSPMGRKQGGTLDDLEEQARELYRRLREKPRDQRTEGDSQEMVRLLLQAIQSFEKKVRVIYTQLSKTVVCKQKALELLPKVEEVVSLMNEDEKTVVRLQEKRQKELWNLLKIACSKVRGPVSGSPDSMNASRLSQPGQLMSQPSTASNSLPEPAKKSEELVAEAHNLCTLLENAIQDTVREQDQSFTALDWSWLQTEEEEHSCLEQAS
Chain of PKC alpha and beta-2 (Homo sapiens) (P05771 whole entry, looked up): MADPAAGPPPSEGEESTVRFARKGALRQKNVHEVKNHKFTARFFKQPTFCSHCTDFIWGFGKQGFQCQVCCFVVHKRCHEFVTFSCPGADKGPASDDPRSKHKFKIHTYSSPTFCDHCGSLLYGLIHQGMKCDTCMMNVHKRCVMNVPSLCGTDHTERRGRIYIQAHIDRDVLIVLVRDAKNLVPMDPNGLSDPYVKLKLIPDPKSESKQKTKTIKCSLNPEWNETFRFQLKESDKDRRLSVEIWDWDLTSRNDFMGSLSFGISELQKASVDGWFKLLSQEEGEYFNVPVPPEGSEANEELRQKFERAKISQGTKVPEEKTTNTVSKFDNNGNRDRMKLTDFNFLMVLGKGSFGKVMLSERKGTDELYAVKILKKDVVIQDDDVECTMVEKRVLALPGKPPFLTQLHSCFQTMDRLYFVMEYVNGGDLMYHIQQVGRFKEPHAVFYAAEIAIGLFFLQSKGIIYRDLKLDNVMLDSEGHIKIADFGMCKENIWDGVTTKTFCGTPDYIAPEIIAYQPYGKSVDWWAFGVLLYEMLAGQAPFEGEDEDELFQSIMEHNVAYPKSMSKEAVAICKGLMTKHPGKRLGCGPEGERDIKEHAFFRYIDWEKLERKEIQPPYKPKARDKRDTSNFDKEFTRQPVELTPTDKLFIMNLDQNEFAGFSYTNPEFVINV
Chain of NF-kappa-B inhibitor alpha (Homo sapiens) (P25963 whole entry): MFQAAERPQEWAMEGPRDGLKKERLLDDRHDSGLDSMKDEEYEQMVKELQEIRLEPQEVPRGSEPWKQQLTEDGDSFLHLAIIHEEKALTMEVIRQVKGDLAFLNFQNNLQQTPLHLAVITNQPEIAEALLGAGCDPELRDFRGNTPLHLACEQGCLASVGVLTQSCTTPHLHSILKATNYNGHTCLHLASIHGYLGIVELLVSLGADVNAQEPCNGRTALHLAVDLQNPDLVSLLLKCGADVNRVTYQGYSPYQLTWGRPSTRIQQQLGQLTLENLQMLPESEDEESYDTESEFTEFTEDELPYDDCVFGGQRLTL
Chain of Protein kinase C zeta type (Homo sapiens) (Q05513 whole entry): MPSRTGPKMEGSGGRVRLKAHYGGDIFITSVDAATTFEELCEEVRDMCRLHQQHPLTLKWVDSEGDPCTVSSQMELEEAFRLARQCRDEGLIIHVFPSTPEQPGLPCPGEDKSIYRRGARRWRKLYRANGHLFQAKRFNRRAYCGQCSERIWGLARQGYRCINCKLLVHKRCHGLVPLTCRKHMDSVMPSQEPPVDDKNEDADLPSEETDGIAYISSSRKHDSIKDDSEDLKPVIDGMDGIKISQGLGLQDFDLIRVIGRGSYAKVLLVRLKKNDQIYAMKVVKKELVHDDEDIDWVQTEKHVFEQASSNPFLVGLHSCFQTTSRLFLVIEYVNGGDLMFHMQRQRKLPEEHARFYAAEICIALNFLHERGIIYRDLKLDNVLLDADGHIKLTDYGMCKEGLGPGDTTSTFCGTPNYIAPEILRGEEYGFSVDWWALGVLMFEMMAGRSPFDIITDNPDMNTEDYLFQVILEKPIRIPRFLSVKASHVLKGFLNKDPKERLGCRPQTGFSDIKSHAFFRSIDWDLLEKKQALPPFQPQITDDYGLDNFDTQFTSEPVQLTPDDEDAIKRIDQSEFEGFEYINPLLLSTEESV
Chain of Transcription factor p65 (Homo sapiens) (Q04206 whole entry): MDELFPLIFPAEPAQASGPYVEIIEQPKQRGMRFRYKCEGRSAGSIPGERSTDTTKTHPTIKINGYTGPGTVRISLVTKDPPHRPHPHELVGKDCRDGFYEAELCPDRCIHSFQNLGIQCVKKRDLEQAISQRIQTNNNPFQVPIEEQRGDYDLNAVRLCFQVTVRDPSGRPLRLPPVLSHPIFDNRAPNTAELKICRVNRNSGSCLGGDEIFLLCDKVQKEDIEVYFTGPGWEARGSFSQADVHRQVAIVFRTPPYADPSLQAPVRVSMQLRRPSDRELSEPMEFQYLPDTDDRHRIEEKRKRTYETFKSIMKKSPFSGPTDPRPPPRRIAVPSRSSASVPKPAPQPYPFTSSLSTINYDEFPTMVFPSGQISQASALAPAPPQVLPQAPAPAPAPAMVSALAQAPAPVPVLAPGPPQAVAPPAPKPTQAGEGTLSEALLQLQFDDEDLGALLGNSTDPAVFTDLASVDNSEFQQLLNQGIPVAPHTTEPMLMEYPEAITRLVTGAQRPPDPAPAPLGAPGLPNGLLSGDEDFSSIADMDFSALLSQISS

Compound: CN1CCN(c2nc(C3=C(c4c[nH]c5ccccc45)C(=O)NC3=O)c3ccccc3n2)CC1 [SOTRASTAURIN]
IC50 (NCI-H1299): > 3200 nM
IC50 (RKO): > 3200 nM
IC50 (ASPC1): > 3200 nM
IC50 (NCI-H1975): > 3200 nM
IC50 (A549): > 3200 nM
IC50 (BXPC-3 [1]): > 3200 nM
IC50 (MGC-803): > 3200 nM
IC50 (PC-9): > 3200 nM

Compound: CN[C@@H]1C[C@H]2O[C@@](C)([C@@H]1OC)n1c3ccccc3c3c4c(c5c6ccccc6n2c5c31)C(=O)NC4=O (stereo in doubt; 15)
inhibition [2]: inactive
Activity (BXPC-3 [3]): Active
Activity (BXPC-3 [4]): Active
inhibition [5]: inactive
inhibition [6]: inactive
Activity (BXPC-3 [7]): Dose-dependent effect
inhibition [8]: Active
inhibition [9]: Active
Activity (BXPC-3 [10]): Active
inhibition [11]: Active
Activity (BXPC-3 [12]): Active
inhibition [13]: Active
Activity (BXPC-3 [14]): Active
Activity (BXPC-3 [15]): Dose-dependent effect
inhibition [16]: inactive
inhibition [17]: inactive
inhibition [18]: Active
Activity (BXPC-3 [19]): Active
Activity (BXPC-3 [20]): Active
inhibition [21]: inactive
Activity (BXPC-3 [22]): Dose-dependent effect
Activity (BXPC-3 [23]): Dose-dependent effect
Activity (BXPC-3 [24]): Dose-dependent effect
inhibition [25]: inactive
inhibition [26]: Active
Activity (BXPC-3 [27]): Active

IC50 [28]: 50 nM
Compound: CO[C@@H]1[C@H](N(C)C(C)=O)C[C@H]2O[C@]1(C)n1c3ccccc3c3c4c(c5c6ccccc6n2c5c31)C(=O)NC4=O

IC50 [28]: > 2500 nM
Compound: O=C1NC(O)c2c1c1c3ccccc3[nH]c1c1[nH]c3ccccc3c21 (stereo unspecified)

IC50 [28]: 400 nM
Compound: CO[C@@H]1[C@H](N(C)C(N)=O)C[C@H]2O[C@]1(C)n1c3ccccc3c3c4c(c5c6ccccc6n2c5c31)C(=O)NC4

IC50 [28]: > 2500 nM
Compound: CO[C@@H]1C(C)(O)O[C@@H]2C[C@@]1(OC)n1c3ccccc3c3c4c(c5c6ccccc6n2c5c31)C(=O)NC4 (stereo partly specified)

Compound: O=C1NC(=O)c2c1c1c3ccccc3[nH]c1c1[nH]c3ccccc3c21 [STAUROSPORINE AGLYCON]
IC50 [28]: > 2500 nM

IC50 [28]: > 2500 nM
Compound: CC(=O)N[C@@H]1C[C@H](n2c3ccccc3c3c4c(c5c6cc(O)ccc6[nH]c5c32)CNC4=O)O[C@@H](C)[C@@H]1O

IC50 [28]: > 2500 nM
Compound: C[C@@H]1O[C@@H](n2c3ccccc3c3c4c(c5c6ccccc6[nH]c5c32)CNC4=O)[C@H](O)[C@H](O)[C@H]1O

IC50 [28]: > 2500 nM
Compound: COC1NC(=O)c2c1c1c3ccccc3[nH]c1c1[nH]c3ccccc3c21 (stereo unspecified)

Compound: C[C@]12O[C@H](C[C@]1(O)C(=O)O)n1c3ccccc3c3c4c(c5c6ccccc6n2c5c31)C(=O)NC4=O
IC50 [28]: 1860 nM

IC50 [28]: 600 nM
Compound: C[C@]12O[C@H](C[C@@H](O)[C@H]1O)n1c3ccccc3c3c4c(c5c6ccccc6n2c5c31)CNC4=O

IC50 [28]: > 2500 nM
Compound: CO[C@@H]1/C(=N/O)C[C@H]2O[C@]1(C)n1c3ccccc3c3c4c(c5c6ccccc6n2c5c31)C(=O)NC4

IC50 [28]: 38 nM
Compound: CO[C@@H]1[C@H](NC(C)=O)C[C@H]2O[C@]1(C)n1c3ccccc3c3c4c(c5c6ccccc6n2c5c31)C(=O)NC4

— ChEMBL document CHEMBL4665887, “Identification, Structure-Activity Relationships of Marine-Derived Indolocarbazoles, and a Dual PKCθ/δ Inhibitor with Potent Antipancreatic Cancer Efficacy” (J Med Chem, 2020)
